In patent US10231954B2, “Neurodegenerative therapies” (LYTIX BIOPHARMA AS, priority 2014, dated 2019):

Experiments:
Assay type in all cases: biochemical
p38a MAPK = p38a MAPK (Homo sapiens, UniProt Q16539); assay: Kinase profiling p38a MAPK
Source text: (§1) Any value less that 25 is considered to be highly significant inhibition.

PKBb = PKBb (Homo sapiens, UniProt P31751); assay: Kinase profiling PKBb; conditions: 100 micromolar inhibitor concentration; 100 is no change
Source text: as §1

ERK1 = ERK1 (Homo sapiens, UniProt P27361); assay: Kinase profiling ERK1; conditions: 100 micromolar inhibitor concentration; 100 is no change
Source text: as §1

p38d MAPK = molecular target: T1, p38d MAPK (Homo sapiens, UniProt O15264); assay: Kinase profiling p38d MAPK; conditions: 100 micromolar inhibitor concentration; 100 is no change
T1 sequence (O15264 1-365): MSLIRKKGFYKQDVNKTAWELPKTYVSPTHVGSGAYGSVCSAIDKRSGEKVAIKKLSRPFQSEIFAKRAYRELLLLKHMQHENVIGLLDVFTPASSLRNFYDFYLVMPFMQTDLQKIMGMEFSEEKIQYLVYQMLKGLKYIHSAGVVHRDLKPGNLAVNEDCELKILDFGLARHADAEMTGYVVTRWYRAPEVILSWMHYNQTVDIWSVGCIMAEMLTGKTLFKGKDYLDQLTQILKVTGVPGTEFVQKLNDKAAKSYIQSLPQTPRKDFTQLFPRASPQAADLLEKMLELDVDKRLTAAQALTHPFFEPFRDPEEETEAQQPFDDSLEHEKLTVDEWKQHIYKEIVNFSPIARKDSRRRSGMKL
Source text: as §1

RSK2 = RSK2 (Homo sapiens, UniProt P51812); assay: Kinase profiling RSK2; conditions: 100 micromolar inhibitor concentration; 100 is no change
Source text: as §1

CAMK1 = CAMK1 (Homo sapiens, UniProt Q14012); assay: Kinase profiling CAMK1
Source text: as §1

IRAK4 = molecular target: T2, IRAK4 (Homo sapiens, UniProt Q9NWZ3); assay: Kinase profiling IRAK4
T2 sequence (Q9NWZ3 1-460): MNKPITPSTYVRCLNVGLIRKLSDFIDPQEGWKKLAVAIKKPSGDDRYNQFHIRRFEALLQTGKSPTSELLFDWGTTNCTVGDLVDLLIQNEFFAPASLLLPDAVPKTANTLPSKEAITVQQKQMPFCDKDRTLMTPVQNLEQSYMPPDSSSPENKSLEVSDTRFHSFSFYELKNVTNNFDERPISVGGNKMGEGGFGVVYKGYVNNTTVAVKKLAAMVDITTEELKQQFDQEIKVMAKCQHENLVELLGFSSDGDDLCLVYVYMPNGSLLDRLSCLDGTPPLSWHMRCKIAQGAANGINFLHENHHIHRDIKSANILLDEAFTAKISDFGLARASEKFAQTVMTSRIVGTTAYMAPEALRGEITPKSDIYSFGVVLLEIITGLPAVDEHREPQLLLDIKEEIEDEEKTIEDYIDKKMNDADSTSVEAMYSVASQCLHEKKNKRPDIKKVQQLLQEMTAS
Source text: as §1

SmMLCK = SmMLCK (Homo sapiens, UniProt Q15746); assay: Kinase profiling SmMLCK
MLK3 = MLK3 (Homo sapiens, UniProt Q16584); assay: Kinase profiling MLK3
Source text: as §1

MARK3 = MARK3 (Homo sapiens, UniProt P27448); assay: Kinase profiling MARK3
Source text: as §1

PAK4 = PAK4 (Homo sapiens, UniProt O96013); assay: Kinase profiling PAK4
Source text: as §1

MST2 = molecular target: T3, MST2 (Homo sapiens, UniProt Q13188); assay: Kinase profiling MST2
T3 sequence (Q13188 1-491): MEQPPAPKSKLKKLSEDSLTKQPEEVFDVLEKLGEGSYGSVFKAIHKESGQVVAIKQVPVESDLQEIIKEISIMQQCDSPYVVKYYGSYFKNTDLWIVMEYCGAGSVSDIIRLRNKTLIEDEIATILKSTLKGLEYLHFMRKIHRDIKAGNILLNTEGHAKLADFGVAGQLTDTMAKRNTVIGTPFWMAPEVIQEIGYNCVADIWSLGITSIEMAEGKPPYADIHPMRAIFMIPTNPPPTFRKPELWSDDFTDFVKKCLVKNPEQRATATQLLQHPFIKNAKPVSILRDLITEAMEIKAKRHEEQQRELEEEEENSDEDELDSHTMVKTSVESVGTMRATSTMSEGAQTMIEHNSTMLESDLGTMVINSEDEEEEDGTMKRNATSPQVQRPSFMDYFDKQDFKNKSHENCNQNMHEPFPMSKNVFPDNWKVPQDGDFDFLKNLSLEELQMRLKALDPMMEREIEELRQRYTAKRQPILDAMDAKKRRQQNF
Source text: as §1

NEK6 = NEK6 (Homo sapiens, UniProt Q9HC98); assay: Kinase profiling NEK6
Source text: as §1

MSK1 = MSK1 (Homo sapiens, UniProt O75582); assay: Kinase profiling MSK1
Source text: as §1

SYK = SYK (Homo sapiens, UniProt P43405); assay: Kinase profiling SYK
Source text: as §1

TBK1 = molecular target: T4, TBK1 (Homo sapiens, UniProt Q9UHD2); assay: Kinase profiling TBK1
T4 sequence (Q9UHD2 1-729): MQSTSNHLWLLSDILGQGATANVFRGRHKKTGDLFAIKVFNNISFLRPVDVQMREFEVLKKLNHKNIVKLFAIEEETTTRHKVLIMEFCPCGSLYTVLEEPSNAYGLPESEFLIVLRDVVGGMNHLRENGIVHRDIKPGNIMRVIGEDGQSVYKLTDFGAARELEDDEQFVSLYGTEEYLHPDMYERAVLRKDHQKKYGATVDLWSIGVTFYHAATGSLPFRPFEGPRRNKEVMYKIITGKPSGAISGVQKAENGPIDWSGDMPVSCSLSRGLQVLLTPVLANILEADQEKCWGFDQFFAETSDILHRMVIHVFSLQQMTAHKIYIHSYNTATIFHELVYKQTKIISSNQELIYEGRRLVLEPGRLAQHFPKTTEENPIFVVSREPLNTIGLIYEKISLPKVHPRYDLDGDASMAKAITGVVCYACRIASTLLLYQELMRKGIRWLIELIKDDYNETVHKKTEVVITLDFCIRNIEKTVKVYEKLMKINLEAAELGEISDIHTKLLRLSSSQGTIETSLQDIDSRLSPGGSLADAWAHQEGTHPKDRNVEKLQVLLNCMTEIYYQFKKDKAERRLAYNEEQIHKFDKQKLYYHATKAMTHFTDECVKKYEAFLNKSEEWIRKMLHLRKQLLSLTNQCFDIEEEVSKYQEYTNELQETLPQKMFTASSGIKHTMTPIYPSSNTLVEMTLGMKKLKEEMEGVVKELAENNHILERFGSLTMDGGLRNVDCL
Source text: as §1

[1] = 100 micromolar inhibitor concentration, 100 is no change
[2] = 100 micromolar inhibitor, 100 = no change

Chain of CAMK1 (Q14012 whole entry, species assumed): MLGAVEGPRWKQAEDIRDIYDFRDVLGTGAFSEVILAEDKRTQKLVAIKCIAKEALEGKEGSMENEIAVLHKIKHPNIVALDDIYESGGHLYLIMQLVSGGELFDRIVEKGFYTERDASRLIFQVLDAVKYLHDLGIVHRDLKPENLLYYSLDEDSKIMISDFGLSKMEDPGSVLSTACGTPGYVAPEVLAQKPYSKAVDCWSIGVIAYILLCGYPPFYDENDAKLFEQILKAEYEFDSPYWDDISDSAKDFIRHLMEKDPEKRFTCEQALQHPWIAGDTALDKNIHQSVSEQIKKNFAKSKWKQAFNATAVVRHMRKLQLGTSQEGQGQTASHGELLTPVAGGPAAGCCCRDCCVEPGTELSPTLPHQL
Chain of RSK2 (P51812 whole entry, species assumed): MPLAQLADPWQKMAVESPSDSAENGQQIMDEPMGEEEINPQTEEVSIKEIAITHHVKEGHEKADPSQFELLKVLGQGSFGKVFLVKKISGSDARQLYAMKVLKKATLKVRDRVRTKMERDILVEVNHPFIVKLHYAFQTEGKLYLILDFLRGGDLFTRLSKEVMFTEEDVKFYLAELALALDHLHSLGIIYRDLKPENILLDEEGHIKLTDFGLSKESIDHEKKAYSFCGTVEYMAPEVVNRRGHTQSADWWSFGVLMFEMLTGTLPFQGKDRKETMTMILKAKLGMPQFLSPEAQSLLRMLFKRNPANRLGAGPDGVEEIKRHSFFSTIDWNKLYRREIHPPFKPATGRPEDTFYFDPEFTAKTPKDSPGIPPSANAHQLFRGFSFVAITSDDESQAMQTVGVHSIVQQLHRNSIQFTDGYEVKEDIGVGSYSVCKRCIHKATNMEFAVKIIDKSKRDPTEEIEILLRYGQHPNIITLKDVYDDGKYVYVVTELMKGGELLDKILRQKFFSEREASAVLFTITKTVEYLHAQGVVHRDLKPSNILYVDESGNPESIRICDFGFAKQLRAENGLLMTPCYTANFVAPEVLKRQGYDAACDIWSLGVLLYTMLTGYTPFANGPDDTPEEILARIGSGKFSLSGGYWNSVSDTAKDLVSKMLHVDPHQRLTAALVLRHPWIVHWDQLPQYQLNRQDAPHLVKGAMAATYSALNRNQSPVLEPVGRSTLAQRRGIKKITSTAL
Chain of MSK1 (O75582 whole entry, species assumed): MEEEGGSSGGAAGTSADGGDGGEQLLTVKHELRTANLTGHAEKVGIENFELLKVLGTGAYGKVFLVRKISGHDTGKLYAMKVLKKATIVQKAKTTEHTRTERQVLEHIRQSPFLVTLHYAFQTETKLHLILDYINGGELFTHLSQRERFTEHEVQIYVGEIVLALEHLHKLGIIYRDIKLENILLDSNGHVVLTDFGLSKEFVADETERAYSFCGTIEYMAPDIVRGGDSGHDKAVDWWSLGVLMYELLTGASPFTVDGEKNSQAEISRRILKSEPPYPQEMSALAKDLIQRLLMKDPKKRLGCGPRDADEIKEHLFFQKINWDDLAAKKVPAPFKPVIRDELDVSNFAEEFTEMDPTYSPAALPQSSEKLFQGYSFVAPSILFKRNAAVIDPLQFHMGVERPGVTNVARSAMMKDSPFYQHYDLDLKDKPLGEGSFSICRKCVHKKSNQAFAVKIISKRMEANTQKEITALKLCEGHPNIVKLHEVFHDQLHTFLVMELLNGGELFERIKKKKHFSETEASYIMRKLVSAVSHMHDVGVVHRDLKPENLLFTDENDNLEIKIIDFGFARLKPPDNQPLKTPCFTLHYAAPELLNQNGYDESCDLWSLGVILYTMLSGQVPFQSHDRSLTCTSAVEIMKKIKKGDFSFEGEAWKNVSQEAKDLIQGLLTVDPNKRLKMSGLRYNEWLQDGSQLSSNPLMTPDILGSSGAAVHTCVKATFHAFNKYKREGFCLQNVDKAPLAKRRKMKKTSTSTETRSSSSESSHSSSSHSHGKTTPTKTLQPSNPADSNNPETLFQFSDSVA
Chain of MARK3 (P27448 whole entry, species assumed): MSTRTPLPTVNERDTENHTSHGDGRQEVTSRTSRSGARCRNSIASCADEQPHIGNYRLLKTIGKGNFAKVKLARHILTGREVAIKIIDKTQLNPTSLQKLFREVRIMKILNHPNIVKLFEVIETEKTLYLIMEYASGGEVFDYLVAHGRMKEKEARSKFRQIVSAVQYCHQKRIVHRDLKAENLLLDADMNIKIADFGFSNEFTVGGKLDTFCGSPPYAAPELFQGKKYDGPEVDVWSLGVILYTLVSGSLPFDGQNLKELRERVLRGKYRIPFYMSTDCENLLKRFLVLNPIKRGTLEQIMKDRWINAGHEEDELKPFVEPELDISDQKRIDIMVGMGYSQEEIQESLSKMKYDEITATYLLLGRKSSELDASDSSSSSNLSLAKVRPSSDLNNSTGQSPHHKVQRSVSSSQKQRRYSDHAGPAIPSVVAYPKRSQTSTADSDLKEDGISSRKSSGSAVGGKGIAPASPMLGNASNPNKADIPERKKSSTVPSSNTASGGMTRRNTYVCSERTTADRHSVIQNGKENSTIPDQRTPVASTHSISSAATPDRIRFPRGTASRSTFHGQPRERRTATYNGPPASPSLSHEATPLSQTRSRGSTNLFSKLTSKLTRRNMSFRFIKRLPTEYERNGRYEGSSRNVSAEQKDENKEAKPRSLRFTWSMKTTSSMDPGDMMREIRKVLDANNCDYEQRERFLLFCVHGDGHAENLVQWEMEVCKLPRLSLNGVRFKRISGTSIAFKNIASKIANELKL
Chain of SmMLCK (Q15746 923-1914): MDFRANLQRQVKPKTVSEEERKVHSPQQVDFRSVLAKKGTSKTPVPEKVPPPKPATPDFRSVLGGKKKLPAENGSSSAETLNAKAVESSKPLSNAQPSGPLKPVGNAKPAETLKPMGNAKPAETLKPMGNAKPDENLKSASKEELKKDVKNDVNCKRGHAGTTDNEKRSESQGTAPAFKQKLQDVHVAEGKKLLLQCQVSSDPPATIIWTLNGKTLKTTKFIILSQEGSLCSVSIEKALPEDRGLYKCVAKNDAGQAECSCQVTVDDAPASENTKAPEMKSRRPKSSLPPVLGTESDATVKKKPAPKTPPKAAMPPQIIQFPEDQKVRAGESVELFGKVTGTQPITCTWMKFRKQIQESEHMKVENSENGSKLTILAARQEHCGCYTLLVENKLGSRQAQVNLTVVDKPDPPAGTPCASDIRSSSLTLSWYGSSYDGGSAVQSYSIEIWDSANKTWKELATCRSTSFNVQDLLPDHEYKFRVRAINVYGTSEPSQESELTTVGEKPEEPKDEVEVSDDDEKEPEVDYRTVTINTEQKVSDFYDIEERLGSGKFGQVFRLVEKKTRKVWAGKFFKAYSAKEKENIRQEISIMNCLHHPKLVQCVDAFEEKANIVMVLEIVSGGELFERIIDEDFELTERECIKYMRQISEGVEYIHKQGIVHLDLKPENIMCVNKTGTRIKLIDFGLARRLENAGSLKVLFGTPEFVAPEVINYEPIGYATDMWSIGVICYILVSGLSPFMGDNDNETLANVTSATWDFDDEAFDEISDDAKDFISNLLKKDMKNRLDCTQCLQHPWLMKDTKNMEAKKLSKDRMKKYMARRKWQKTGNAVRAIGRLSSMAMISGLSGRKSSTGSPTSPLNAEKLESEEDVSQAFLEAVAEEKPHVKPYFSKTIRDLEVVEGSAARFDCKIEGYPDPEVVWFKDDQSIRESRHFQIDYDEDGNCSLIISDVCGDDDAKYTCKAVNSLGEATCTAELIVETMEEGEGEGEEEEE
Chain of NEK6 (Q9HC98 whole entry, species assumed): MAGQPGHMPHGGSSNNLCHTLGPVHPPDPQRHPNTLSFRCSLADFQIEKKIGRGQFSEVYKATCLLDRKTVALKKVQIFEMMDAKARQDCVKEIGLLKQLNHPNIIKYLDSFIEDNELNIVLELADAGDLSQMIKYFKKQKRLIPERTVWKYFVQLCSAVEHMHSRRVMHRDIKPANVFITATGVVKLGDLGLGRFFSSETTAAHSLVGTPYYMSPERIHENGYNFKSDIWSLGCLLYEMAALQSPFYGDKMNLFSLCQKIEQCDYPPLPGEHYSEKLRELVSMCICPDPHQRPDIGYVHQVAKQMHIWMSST
Chain of ERK1 (P27361 whole entry, species assumed): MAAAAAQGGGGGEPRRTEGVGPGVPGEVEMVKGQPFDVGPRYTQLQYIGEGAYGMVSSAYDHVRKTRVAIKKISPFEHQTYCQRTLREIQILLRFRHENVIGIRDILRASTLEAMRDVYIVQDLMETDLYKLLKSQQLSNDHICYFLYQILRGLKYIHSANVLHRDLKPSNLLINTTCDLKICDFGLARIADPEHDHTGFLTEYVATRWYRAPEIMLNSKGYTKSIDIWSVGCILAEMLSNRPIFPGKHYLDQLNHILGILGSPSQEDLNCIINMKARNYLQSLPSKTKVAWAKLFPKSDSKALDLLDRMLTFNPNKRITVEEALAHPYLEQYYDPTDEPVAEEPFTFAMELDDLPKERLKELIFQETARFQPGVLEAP
Chain of PAK4 (O96013 whole entry, species assumed): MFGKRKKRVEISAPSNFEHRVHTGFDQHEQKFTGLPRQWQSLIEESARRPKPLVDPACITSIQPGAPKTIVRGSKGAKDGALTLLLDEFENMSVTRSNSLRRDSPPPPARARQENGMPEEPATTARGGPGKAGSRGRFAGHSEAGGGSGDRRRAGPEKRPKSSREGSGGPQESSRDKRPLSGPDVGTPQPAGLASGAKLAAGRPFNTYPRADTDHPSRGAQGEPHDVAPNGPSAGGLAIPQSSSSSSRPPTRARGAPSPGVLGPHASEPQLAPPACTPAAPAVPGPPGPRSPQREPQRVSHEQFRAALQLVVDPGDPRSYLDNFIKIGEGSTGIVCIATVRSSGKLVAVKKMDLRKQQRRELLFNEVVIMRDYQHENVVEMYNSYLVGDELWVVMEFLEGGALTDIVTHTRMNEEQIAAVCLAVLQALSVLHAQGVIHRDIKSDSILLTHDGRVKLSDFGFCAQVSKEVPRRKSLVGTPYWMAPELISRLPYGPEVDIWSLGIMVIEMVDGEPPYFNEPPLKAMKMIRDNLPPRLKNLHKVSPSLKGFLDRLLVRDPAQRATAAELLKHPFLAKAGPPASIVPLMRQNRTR

CC(=O)Nc1cccc(C(=O)Nc2nc3ccc(O)cc3s2)c1 [Compound 03-58]
residual kinase activity, p38a MAPK (p38a MAPK; [1]): 81 | residual kinase activity, PKBb (PKBb): 80 | residual kinase activity, ERK1 (ERK1): 84 | residual kinase activity, p38d MAPK (p38d MAPK): 75 | residual kinase activity, RSK2 (RSK2): 51

CC(=O)NC(C)C(=O)Nc1nc2ccc(C(F)(F)F)cc2s1 (centres unmarked) [Compound 03-80]
residual kinase activity, p38a MAPK (p38a MAPK; [1]): 79 | residual kinase activity, PKBb (PKBb): 93 | residual kinase activity, ERK1 (ERK1): 94 | residual kinase activity, p38d MAPK (p38d MAPK): 102 | residual kinase activity, RSK2 (RSK2): 66

COC(=O)c1cccc(C(=O)Nc2nc3ccc(F)cc3s2)c1 [Compound 03-110]
residual kinase activity, p38a MAPK (p38a MAPK; [1]): 106 | residual kinase activity, CAMK1 (CAMK1; [1]): 99 | residual kinase activity, IRAK4 (IRAK4; [1]): 96 | residual kinase activity, SmMLCK (SmMLCK; [1]): 55 | residual kinase activity, MLK3 (MLK3; [1]): 68 | residual kinase activity, MARK3 (MARK3; [1]): 105 | residual kinase activity, PAK4 (PAK4; [1]): 83 | residual kinase activity, MST2 (MST2; [1]): 88 | residual kinase activity, NEK6 (NEK6; [1]): 87 | residual kinase activity, MSK1 (MSK1; [1]): 77 | residual kinase activity, SYK (SYK; [1]): 79 | residual kinase activity, TBK1 (TBK1; [1]): 96

COc1ccc2sc(NC(=O)c3cccc(C(N)=O)c3)nc2c1 [Compound 03-113]
residual kinase activity, p38a MAPK (p38a MAPK; [1]): 113 | residual kinase activity, CAMK1 (CAMK1; [1]): 102 | residual kinase activity, IRAK4 (IRAK4; [1]): 58 | residual kinase activity, SmMLCK (SmMLCK; [1]): 83 | residual kinase activity, MLK3 (MLK3; [1]): 73 | residual kinase activity, MARK3 (MARK3; [1]): 101 | residual kinase activity, PAK4 (PAK4; [1]): 109 | residual kinase activity, MST2 (MST2; [1]): 119 | residual kinase activity, NEK6 (NEK6; [1]): 99 | residual kinase activity, MSK1 (MSK1; [1]): 65 | residual kinase activity, SYK (SYK; [1]): 108 | residual kinase activity, TBK1 (TBK1; [1]): 98

CC(=O)Nc1ccccc1C(=O)Nc1nc2ccc(O)cc2s1 [Compound 08-39]
residual kinase activity, p38a MAPK (p38a MAPK; [1]): 96 | residual kinase activity, PKBb (PKBb): 4 | residual kinase activity, ERK1 (ERK1): 18 | residual kinase activity, p38d MAPK (p38d MAPK): 67 | residual kinase activity, RSK2 (RSK2): 2

COc1ccc2nc(C(=O)Nc3ccccc3)sc2c1 [Compound 13-03]
residual kinase activity, p38a MAPK (p38a MAPK; [2]): 103 | residual kinase activity, CAMK1 (CAMK1; [2]): 94 | residual kinase activity, IRAK4 (IRAK4; [2]): 93 | residual kinase activity, SmMLCK (SmMLCK; [2]): 85 | residual kinase activity, MLK3 (MLK3; [2]): 89 | residual kinase activity, MARK3 (MARK3; [2]): 92 | residual kinase activity, PAK4 (PAK4; [2]): 58 | residual kinase activity, MST2 (MST2; [2]): 107 | residual kinase activity, NEK6 (NEK6; [2]): 107 | residual kinase activity, MSK1 (MSK1; [2]): 97 | residual kinase activity, SYK (SYK; [2]): 37 | residual kinase activity, TBK1 (TBK1; [2]): 98

CC(=O)Nc1nc2ccc([N+](=O)[O-])cc2s1 [Compound 13-10]
remaining activity at 100 µM (p38a MAPK; 100 micromolar inhibitor concentration, 100 is no change, read-out: residual kinase activity, p38a MAPK): 103% | remaining activity at 100 µM (CAMK1; 100 micromolar inhibitor concentration, 100 is no change, read-out: residual kinase activity, CAMK1): 84% | remaining activity at 100 µM (IRAK4; 100 micromolar inhibitor concentration, 100 is no change, read-out: residual kinase activity, IRAK4): 8% | remaining activity at 100 µM (SmMLCK; 100 micromolar inhibitor concentration, 100 is no change, read-out: residual kinase activity, SmMLCK): 58% | remaining activity at 100 µM (MLK3; 100 micromolar inhibitor concentration, 100 is no change, read-out: residual kinase activity, MLK3): 54% | remaining activity at 100 µM (MARK3; 100 micromolar inhibitor concentration, 100 is no change, read-out: residual kinase activity, MARK3): 85% | remaining activity at 100 µM (PAK4; 100 micromolar inhibitor concentration, 100 is no change, read-out: residual kinase activity, PAK4): 86% | remaining activity at 100 µM (MST2; 100 micromolar inhibitor concentration, 100 is no change, read-out: residual kinase activity, MST2): 97% | remaining activity at 100 µM (NEK6; 100 micromolar inhibitor concentration, 100 is no change, read-out: residual kinase activity, NEK6): 92% | remaining activity at 100 µM (MSK1; 100 micromolar inhibitor concentration, 100 is no change, read-out: residual kinase activity, MSK1): 92% | remaining activity at 100 µM (SYK; 100 micromolar inhibitor concentration, 100 is no change, read-out: residual kinase activity, SYK): 97% | remaining activity at 100 µM (TBK1; 100 micromolar inhibitor concentration, 100 is no change, read-out: residual kinase activity, TBK1): 89%

COc1cccc(NC(=O)Nc2nc3cc(O)ccc3s2)c1 [Compound 13-62]
residual kinase activity, p38a MAPK (p38a MAPK; [2]): 21 | residual kinase activity, CAMK1 (CAMK1; [2]): 8 | residual kinase activity, IRAK4 (IRAK4; [2]): 17 | residual kinase activity, SmMLCK (SmMLCK; [2]): 5 | residual kinase activity, MLK3 (MLK3; [2]): 13 | residual kinase activity, MARK3 (MARK3; [2]): 12 | residual kinase activity, PAK4 (PAK4; [2]): 22 | residual kinase activity, MST2 (MST2; [2]): 3 | residual kinase activity, NEK6 (NEK6; [2]): 104 | residual kinase activity, MSK1 (MSK1; [2]): 41 | residual kinase activity, SYK (SYK; [2]): 59 | residual kinase activity, TBK1 (TBK1; [2]): 48

COc1ccc2sc(NC(=O)c3ccc(NC(C)=O)cc3)nc2c1 [MS:LY-2-77]
residual kinase activity, p38a MAPK (p38a MAPK; [1]): 109 | residual kinase activity, PKBb (PKBb): 44 | residual kinase activity, ERK1 (ERK1): 87 | residual kinase activity, p38d MAPK (p38d MAPK): 98 | residual kinase activity, RSK2 (RSK2): 81
